Reference: publication PMC4642525, “Conjugates of γ-Carbolines and Phenothiazine as new selective inhibitors of butyrylcholinesterase and blockers of NMDA receptors for Alzheimer Disease” (Scientific Reports, 2015)
Entries after “also recorded” stand apart in the source; their conditions may differ. Like-named read-outs stand apart in the source and are kept apart here.

Assays:
[1] = target: T1, МК-801 binding site of NMDA receptor (Rattus norvegicus, UniProt P35439); test: Radioligand binding, [3H]MK-801 site of NMDA receptor, hippocampal membranes; settings: for % of [3H]МК-801 blockade at 100 μM of compound: 100 μM compound
T1 construct: A membrane preparation of hippocampus for radioligand analysis was prepared; from tissue; host or cells: rat hippocampal membranes
Protocol: (§1) Effect of test compounds on the radioligand binding to NMDA receptors was determined by using a modified method as reported earlier by Zhou L-M and coworkers. Two radioactive ligands were used: [^3H] MK-801 (dizocilpine) with a specific activity of 210 Ci/mmol binding to all isolated NMDA receptors, and [^3H] ifenprodil with a specific activity of 79 Ci/mmol binding only to NMDA receptors containing the NR2B subunit.
(§2) A membrane preparation of hippocampus for radioligand analysis was prepared by the techniques described previously. The obtained membrane pellet was resuspended in a work buffer (5 mM HEPES/4.5 mM Tris buffer, pH 7.6) in a ratio of 1:5, and stored in liquid nitrogen. The reaction mixture (the final volume of 0.5 ml) contained 200 μl of the working buffer, 50 μl of 50 nM radioligand solution and 250 μl of the membrane suspension. Nonspecific binding was determined in the presence of 50 μl of […] of unlabeled ligand.
(§3) For binding study, the reaction mixture was incubated at room temperature for 2 hours. After incubation, the samples were filtered through the glass-fiber filters GF/B (Whatman), washed with the work buffer, dried and transferred to scintillation vials to which 5 ml of scintillation fluid was added containing 4g diphenyl oxazole (PPO), 0.2g diphenyloxazoil benzene (POPOP) and 1 liter of toluene. Radioactivity was determined in the scintillation counter TriCarb2800 TR (PerkinElmer, Packard, USA) with counting efficiency of about 65%.
(§4) Investigation of the effect of the tested compounds on the binding of [^3H]

[2] = target: T2, carboxylesterase (CaE, EC 3.1.1.1, from porcine liver) (Sus scrofa, UniProt Q29550); test: In vitro CaE inhibition (4-nitrophenyl acetate hydrolysis); type: biochemical; settings: pH 8.0, 25 °C, 10 min preincubation, read-out: IC50 (μM) ± SEM CaE
T2 sequence (Q29550 19-566): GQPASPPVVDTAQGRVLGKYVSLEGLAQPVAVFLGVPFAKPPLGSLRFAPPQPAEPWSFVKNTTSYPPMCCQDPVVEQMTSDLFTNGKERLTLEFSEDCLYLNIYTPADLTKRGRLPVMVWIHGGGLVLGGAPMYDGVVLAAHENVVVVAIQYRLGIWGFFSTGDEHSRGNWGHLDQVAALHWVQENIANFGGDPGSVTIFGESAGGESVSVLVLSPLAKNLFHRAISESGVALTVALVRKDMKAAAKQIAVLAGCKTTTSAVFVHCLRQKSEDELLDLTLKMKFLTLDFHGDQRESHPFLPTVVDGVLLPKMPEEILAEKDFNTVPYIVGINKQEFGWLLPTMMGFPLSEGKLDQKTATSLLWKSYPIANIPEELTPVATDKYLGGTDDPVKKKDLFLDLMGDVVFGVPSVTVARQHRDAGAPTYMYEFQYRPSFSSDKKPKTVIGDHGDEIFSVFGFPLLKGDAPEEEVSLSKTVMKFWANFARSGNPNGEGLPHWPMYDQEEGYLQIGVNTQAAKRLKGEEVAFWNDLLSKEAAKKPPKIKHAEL
Protocol: (§5) Acetylcholinesterase (AChE, EC 3.1.1.7, from human erythrocyte), butyrylcholinesterase (BChE, EC 3.1.1.8, from equine serum), carboxylesterase (CaE, EC 3.1.1.1, from porcine liver), acetylthiocholine iodide (ATCh), butylthiocholine iodide (BTCh), 5,5´-dithiobis-(2-nitrobenzoic acid) (DTNB), 4-nitrophenyl acetate (4-NPA), were purchased from Sigma-Aldrich (Germany).
The activity of CaE was determined spectrophotometrically by the release of 4-nitrophenol at 405 nm[51]. The assay solution consisted of 0.1 M K/Na phosphate buffer pH 8.0, 25 °C with the addition of 1 mM 4-nitrophenyl acetate and 0.02 unit/mL of CaE. Assays were carried out with a blank containing all components except CaE.
(§6) The tested compounds were dissolved in DMSO; the incubation mixture contained 2% of the solvent. […] The test compounds were added to the assay solution and preincubated at 25 °C with the enzymes for 10 min followed by the addition of substrate. A parallel control was made for the assay solution with no inhibitor. Measurements were performed in a BioRad Benchmark Plus microplate spectrophotometer (France). Each experiment was performed in triplicate. The results were expressed as the mean ± SEM. The reaction rates in the presence and absence of inhibitor were compared, and the percent of residual enzyme activity due to the presence of test compounds was calculated.

[3] = target: T3, butyrylcholinesterase (BChE, EC 3.1.1.8, from equine serum) (Equus caballus, UniProt P81908); test: biochemical; type: biochemical; settings: for αKi (non-competitive inhibition constant) / Ki: BChE, means ± SEM, at least three experiments; for Ki: read-out: Ki (competitive inhibition constant); for type of BChE inhibition: Lineweaver-Burk analysis
T3 construct: butyrylcholinesterase (BChE, EC 3.1.1.8, from equine serum); purchased Sigma-Aldrich (Germany); host or cells: equine serum
T3 sequence (P81908 whole entry): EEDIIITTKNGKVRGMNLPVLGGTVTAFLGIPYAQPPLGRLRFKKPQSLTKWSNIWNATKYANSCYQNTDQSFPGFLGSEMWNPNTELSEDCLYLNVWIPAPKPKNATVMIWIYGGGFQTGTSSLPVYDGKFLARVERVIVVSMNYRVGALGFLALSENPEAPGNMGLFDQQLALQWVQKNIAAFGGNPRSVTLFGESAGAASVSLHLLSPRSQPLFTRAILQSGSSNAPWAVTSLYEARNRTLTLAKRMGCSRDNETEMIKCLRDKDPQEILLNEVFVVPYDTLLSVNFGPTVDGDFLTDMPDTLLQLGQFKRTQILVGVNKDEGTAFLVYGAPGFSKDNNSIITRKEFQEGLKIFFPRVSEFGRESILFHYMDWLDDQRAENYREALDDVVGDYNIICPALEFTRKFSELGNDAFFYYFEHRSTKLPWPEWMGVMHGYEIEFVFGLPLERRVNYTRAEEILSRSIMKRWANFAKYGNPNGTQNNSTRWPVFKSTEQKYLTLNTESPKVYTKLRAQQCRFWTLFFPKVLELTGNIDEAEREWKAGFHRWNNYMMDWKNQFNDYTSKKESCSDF
Protocol: The test compounds were preincubated with the enzymes at 25 °C for 10 min, followed by the addition of the substrates. Parallel controls were made for an assay of the rate of hydrolysis of the same concentrations of substrates in the solutions with no inhibitor. The kinetic parameters of substrate hydrolysis were determined. Measurements were performed in a BioRad Benchmark Plus microplate spectrophotometer (France). Each experiment was performed in triplicate.

[4] = target: T4, ifenprodil binding site of NMDA receptor (NR2B subunit containing) (Rattus norvegicus, UniProt P35439+Q00960); test: Radioligand binding, [3H]ifenprodil site of NMDA receptor, hippocampal membranes; settings: for % of [3H]ifenprodil blockade at 100 μM of compound: 100 μM compound
T4 construct: A membrane preparation of hippocampus for radioligand analysis was prepared; from tissue; host or cells: rat hippocampal membranes
T4 sequence (Q00960 27-1482, other chains not shown): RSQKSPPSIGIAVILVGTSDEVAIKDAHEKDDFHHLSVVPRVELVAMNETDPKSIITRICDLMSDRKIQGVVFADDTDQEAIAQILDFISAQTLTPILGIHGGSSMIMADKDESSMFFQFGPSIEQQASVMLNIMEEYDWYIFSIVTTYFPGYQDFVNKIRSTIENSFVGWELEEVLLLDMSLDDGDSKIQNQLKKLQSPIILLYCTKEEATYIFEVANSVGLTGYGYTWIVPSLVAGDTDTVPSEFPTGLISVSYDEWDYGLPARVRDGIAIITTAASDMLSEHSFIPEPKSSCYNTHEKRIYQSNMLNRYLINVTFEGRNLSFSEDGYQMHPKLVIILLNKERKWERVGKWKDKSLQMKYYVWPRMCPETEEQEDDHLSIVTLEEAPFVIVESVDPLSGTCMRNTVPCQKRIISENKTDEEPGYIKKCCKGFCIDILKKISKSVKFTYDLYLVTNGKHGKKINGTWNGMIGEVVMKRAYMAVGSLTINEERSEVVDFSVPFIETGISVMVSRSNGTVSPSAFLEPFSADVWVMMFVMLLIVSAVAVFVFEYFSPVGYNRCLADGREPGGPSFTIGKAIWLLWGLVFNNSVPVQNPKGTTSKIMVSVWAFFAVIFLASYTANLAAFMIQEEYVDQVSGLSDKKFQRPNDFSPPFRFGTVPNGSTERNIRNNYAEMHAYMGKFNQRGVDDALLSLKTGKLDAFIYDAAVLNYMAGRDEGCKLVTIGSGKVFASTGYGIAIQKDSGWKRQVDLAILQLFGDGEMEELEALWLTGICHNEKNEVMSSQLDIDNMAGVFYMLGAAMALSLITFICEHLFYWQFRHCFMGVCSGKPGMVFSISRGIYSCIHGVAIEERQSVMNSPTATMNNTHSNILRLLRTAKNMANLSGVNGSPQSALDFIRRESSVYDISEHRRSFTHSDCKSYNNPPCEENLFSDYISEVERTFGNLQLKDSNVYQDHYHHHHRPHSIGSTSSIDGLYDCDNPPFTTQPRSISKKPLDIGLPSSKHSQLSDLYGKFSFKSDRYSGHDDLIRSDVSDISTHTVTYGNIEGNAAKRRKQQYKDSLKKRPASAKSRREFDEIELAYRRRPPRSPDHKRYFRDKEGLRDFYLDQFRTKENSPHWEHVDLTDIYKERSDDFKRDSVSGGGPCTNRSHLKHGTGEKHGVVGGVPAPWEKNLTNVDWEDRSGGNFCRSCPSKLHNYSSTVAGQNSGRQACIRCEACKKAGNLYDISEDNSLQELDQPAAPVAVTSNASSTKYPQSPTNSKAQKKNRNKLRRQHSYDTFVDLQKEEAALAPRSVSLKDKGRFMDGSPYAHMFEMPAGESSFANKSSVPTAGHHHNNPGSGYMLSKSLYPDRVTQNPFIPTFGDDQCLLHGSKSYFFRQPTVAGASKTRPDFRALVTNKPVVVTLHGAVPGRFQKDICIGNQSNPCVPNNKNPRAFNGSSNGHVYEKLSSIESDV
Protocol: as §1, §2, §3, §4

[5] = target: T3, butyrylcholinesterase (BChE, EC 3.1.1.8, from equine serum); test: biochemical; type: biochemical
Protocol: as §5
(§7) AChE and BChE activities were measured by the method of Ellman and coworkers as described earlier. The assay solution consisted of 0.1 M K/Na phosphate buffer pH 7.5, 25 °C with the addition of 0.33 mM DTNB, 0.02 unit/mL of AChE or BChE and 1 mM of substrate (ATCh or BTCh, respectively). Assays were carried out with a blank containing all components except ATCh and BTCh in order to account for non-enzymatic reaction.
as §6

[6] = target: T5, Acetylcholinesterase (AChE, EC 3.1.1.7, from human erythrocyte) (Homo sapiens, UniProt P22303); test: biochemical; type: biochemical
T5 construct: Acetylcholinesterase (AChE, EC 3.1.1.7, from human erythrocyte); purchased Sigma-Aldrich (Germany); host or cells: human erythrocytes
T5 sequence (P22303 other isoform, or with tags, fused parts or gaps): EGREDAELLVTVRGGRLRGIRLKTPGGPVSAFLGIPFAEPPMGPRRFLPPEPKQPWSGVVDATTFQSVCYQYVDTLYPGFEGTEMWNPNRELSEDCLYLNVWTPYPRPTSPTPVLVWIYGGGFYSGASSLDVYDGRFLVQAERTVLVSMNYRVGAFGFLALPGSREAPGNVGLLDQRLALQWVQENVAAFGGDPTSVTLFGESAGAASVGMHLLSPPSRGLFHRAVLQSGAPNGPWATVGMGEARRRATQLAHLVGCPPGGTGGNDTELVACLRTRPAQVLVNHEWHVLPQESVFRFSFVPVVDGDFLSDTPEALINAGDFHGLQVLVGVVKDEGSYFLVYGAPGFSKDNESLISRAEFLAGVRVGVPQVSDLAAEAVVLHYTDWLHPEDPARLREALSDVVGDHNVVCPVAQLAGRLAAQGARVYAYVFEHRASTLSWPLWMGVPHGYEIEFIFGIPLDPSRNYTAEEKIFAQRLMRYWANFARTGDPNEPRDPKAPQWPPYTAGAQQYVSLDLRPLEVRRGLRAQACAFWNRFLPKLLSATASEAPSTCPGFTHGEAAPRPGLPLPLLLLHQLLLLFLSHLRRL
Protocol: as §5, §7, §6

[7] = rat hippocampal membranes, read-out: [3H]МК-801, IC50
[8] = rat hippocampal membranes, read-out: [3H]ifenprodil, IC50
[9] = equine serum BChE, pH 7.5, 25 °C, 10 min preincubation, read-out: IC50 (μM) ± SEM BChE
[10] = human erythrocyte AChE, pH 7.5, 25 °C, 10 min preincubation, read-out: IC50 (μM) ± SEM AChE

| SMILES | % of [3H]МК-801 blockade at 100 μM of compound ([1]; rat hippocampal membranes) | IC50 [1, 7] | IC50 [2] | αKi (non-competitive inhibition constant) [3] | Ki [3] | % of [3H]ifenprodil blockade at 100 μM of compound ([4]; rat hippocampal membranes) | IC50 [4, 8] | IC50 [5, 9] | IC50 [6, 10] | IC50 [5] | IC50 [6] | type of BChE inhibition [3] | IC50 ([1]; read-out: [3H]МК-801, IC50, rat hippocampal membranes) | IC50 ([4]; read-out: [3H]ifenprodil, IC50, rat hippocampal membranes) | IC50 [1] | IC50 [4] | times higher BChE inhibitory activity versus (C-2b) ([5]; comparison of IC50 values, 1-oxopropylene vs 2-hydroxypropylene spacer, same R1, R2) |
| --- | --- | --- | --- | --- | --- | --- | --- | --- | --- | --- | --- | --- | --- | --- | --- | --- | --- |
| CCN1CCc2c(c3ccccc3n2CCC(=O)N2c3ccccc3Sc3ccccc32)C1 [C-1e] | 76.1 ± 1.2% | 14.6 ± 1.9 µM | > 200 µM | 0.65 ± 0.07 µM | 0.26 ± 0.02 µM | 69.4 ± 3.3% | 13.4 ± 2.6 µM | 0.52 ± 0.01 µM | > 200 µM |  |  |  |  |  |  |  |  |
| O=[N+]([O-])c1ccc(OP(=O)(O)Oc2ccc([N+](=O)[O-])cc2)cc1 [BNPP, Bis-4-nitrophenyl phosphate, reference compound] |  |  | 1.8 ± 0.11 µM |  |  |  |  |  |  |  |  |  |  |  |  |  |  |
| CN1CCc2c(c3cc(F)ccc3n2CCC(=O)N2c3ccccc3Sc3ccccc32)C1 [C-1c] | 78.7 ± 1.4% | 17.7 ± 2.6 µM | > 200 µM | 1.27 ± 0.41 µM | 0.48 ± 0.06 µM | 50.2 ± 5.2% | 55.1 ± 5.8 µM | 1.79 ± 0.28 µM | > 200 µM |  |  |  |  |  |  |  |  |
| Cc1ccc2c(c1)c1c(n2CCc2ccc(C)nc2)CCN(C)C1 [dimebon, reference compound] | 27.8 ± 3.9% | 91.5 ± 7.7 µM |  |  |  | 34.1 ± 4.9% | 82.4 ± 4.1 µM |  |  | 5.76 ± 0.51 µM | 36.3 ± 5.8 µM |  |  |  |  |  |  |
| CCN1CCc2c(c3cc(F)ccc3n2CC(O)CN2c3ccccc3Sc3ccccc32)C1 (racemic) [C-2b] | 24.1 ± 1.9% | 106 ± 9.2 µM | > 200 µM | 2.98 ± 0.19 µM | 0.82 ± 0.02 µM | 25.7 ± 4.6% | 81.2 ± 6.7 µM | 2.01 ± 0.04 µM |  |  |  | mixed-type inhibition; also recorded: mixed-type reversible inhibitors |  |  |  |  |  |
| CC(C)c1ccc2c(c1)c1c(n2CCC(=O)N2c3ccccc3Sc3ccccc32)CCN(C)C1 [C-1h] | 80.3 ± 6.9% | 17.8 ± 2 µM | 120 ± 13 µM | 1.94 ± 0.01 µM |  |  | 85.8 ± 7.2 µM | 2.79 ± 0.09 µM | > 100 µM |  |  | non-competitive mechanism |  |  |  |  |  |
| Cc1ccc2c(c1)c1c(n2CCC(=O)N2c3ccccc3Sc3ccccc32)CCN(C)C1 [C-1a] | 80.4 ± 6.6% | 13.5 ± 3.6 µM | > 200 µM |  |  | 42.6 ± 7.2% | 88.4 ± 8.3 µM | 62.6 ± 4.3 µM | > 200 µM |  |  |  |  |  |  |  |  |
| CN(C)c1ccc2nc3ccc(=[N+](C)C)cc-3sc2c1 [MB, methylene blue, reference compound] | 2.0 ± 4.0% |  |  | 0.64 ± 0.02 µM |  |  |  |  |  |  |  |  |  |  |  |  |  |
| c1ccc2c(c1)Nc1ccccc1S2 [phenothiazine] |  |  |  |  |  |  |  |  |  | 137 ± 31 µM |  |  |  |  |  |  |  |
| Cc1ccc2c(c1)c1c(n2CC(O)CN2c3ccccc3Sc3ccccc32)CCN(C)C1 (racemic) [C-2a] |  | 84.8 ± 9.2 µM | > 200 µM |  |  | 69.7 ± 8.3% | 57.2 ± 6.7 µM | 11.7 ± 0.4 µM |  |  |  |  |  |  |  |  |  |
| COc1ccc2c(c1)c1c(n2C[C@@H](O)CN2c3ccccc3Sc3ccccc32)CCN(C)C1 [C-2c] | 19.1 ± 2.2% |  |  | 0.89 ± 0.18 µM | 0.25 ± 0.04 µM | 47.4 ± 6.6% |  | 0.39 ± 0.02 µM |  |  |  |  | 113 ± 11.1 µM | 115 ± 9.3 µM |  |  |  |
| CN1CCc2c(c3ccccc3n2CCC(=O)N2c3ccccc3Sc3ccccc32)C1 [C-1d] | 74.9 ± 1.1% | 18.5 ± 0.9 µM | > 200 µM | 1.64 ± 0.20 µM | 0.37 ± 0.01 µM | 60.1 ± 1.4% | 23.4 ± 0.7 µM | 1.07 ± 0.12 µM | > 200 µM |  |  |  |  |  |  |  |  |
| CCN1CCc2c(c3cc(C)ccc3n2CCC(=O)N2c3ccccc3Sc3ccccc32)C1 [C-1b] | 95.7 ± 1.0% | 8.5 ± 0.8 µM | > 200 µM | 1.46 ± 0.40 µM | 0.43 ± 0.05 µM | 48.1 ± 5.9% | 74.4 ± 4 µM | 2.04 ± 0.55 µM | > 200 µM |  |  |  |  |  |  |  |  |
| CCc1ccc2c(c1)c1c(n2CCC(=O)N2c3ccccc3Sc3ccccc32)CCN(C)C1 [C-1g] | 89.4 ± 4.6% | 13.2 ± 2.2 µM | > 200 µM | 0.99 ± 0.04 µM | 0.46 ± 0.02 µM | 64.6 ± 5.2% | 15.4 ± 3.9 µM | 1.36 ± 0.06 µM | > 100 µM |  |  |  |  |  |  |  |  |
| CCN1CCc2c(c3cc(F)ccc3n2CCC(=O)N2c3ccccc3Sc3ccccc32)C1 [C-1f] | 82.4 ± 7.3% |  |  | 0.52 ± 0.04 µM | 0.17 ± 0.02 µM | 78.2 ± 6.8% |  | 0.58 ± 0.06 µM | > 200 µM |  |  | mixed-type inhibition; also recorded: mixed-type reversible inhibitors |  |  | 15.8 ± 1.8 µM | 8.8 ± 1.8 µM | 3.5 times |
